Target: T1, human FFAR1 (GPR40) (Homo sapiens, UniProt O14842)
T1 construct: Flag; expressed in transfected cells; host or cells: HEK293T
Assay: NFAT-RE-based reporter gene activity assay (Dual-Glo luciferase) for GPR40 agonistic activity in co-transfected HEK293T cells
Format: cell-based
Conditions: 4-hour treatment; for Efficacy (%): class symbols
Excerpt: The pcDNA3.0-flag-FFAR1 (GPR40) plasmid was constructed using conventional molecular cloning methods. The main steps were as follows: The full-length cDNA sequence of human FFAR1 (GPR40) (NM_005303.3) was inserted into the HindIII and XbaI restriction sites of the pcDNA3.0 vector via PCR technology, resulting in the pcDNA3.0-flag-FFAR1 (GPR40) plasmid; pGL4.30 [luc2P NFAT-RE] (# E8481) and pRL-TK (#E2241) plasmids were both purchased from Promega; the plasmids were transformed into DH5α E. coli using the CaCl2 method, further cultured and amplified, and then purified using a plasmid extraction kit (TIANGEN, # DP117) to obtain the corresponding plasmid DNA.
HEK293T cells were seeded in a 96-well plate at a density of 1 × 10^4/well one day prior to plasmid transfection. Cell transfection was performed according to the instructions of the transfection reagent FuGENE® HD (Promega, # E2311). The main steps were as follows: Taking one well as an example, plasmids pcDNA3.0-flag-FFAR1 (GPR40), pGL4.30 [luc2P NFAT-RE], and pRL-TK were added at ratios of 50 ng, 50 ng, and 5 ng, respectively, into 10 µL of Opti-MEM™ I medium (Gibco, #11058021) and mixed thoroughly; then, 0.2 µL of FuGENE® HD was added, mixed thoroughly, and allowed to stand at room temperature for 5 minutes; finally, this 10 µL mixture was added to the cell well containing 100 µL of culture medium. 24 hours after co-transfection, the compounds were serially diluted at half-logarithmic intervals with 1 µM as the highest concentration, resulting in 10 concentration gradients, which were added to the cell culture medium for a 4-hour treatment.
After 4 hours of compound treatment, the cells were assayed according to the instructions of the Dual-Glo® Luciferase Assay System (Promega, # E2940). The main steps were as follows: 50 µL of culture medium was aspirated from each well and discarded, followed by the addition of 50 µL of Dual-Glo® Luciferase Reagent, and the mixture was shaken at room temperature for 10 minutes. Then, 80 µL of the lysate reaction solution was transferred to a white opaque optiPlate-96 well plate, and the luminescence signal of Firefly luciferase (Firefly-Luc) was measured using an MD i3x multifunctional microplate reader. Subsequently, 40 µL of Dual-Glo® Stop & Glo® Reagent was added, and the mixture was shaken at room temperature for 10 minutes. Finally, the luminescence signal of Renilla luciferase (Renilla-Luc) was measured using the MD i3x multifunctional microplate reader. The ratio of Firefly-Luc/Renilla-Luc was used as the compound's agonistic activity toward GPR40, and normalization was performed using the ratio of the solvent DMSO group. A dose-response curve was fitted using a four-parameter model with GraphPad Prism 8.0 software to calculate the EC50 value.

T1 sequence (O14842 whole entry): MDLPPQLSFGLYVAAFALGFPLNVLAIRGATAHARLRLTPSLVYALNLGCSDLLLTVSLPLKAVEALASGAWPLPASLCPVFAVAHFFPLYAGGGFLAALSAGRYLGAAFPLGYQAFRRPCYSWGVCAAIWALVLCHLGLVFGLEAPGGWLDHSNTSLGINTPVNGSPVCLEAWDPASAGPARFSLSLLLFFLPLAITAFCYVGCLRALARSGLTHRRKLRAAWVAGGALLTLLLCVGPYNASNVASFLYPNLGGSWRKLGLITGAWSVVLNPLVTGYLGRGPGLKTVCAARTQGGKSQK

SMILES	EC50	Efficacy (%)
Cc1ccccc1NC(=O)c1c(C2CCN(c3ccc4c(c3)OCO4)CC2)oc2cc([C@@H](CC(=O)O)C3CC3)ccc12 [Compound 330]	10 to 100 nM	†† (150 ≥ Efficacy (%) > 100)
COc1cccc(N2CCC(c3oc4cc([C@@H](CC(=O)O)C5CC5)ccc4c3C(C)OCC[C@@H](C)CCCC(C)C)CC2)c1 (stereo partly drawn) [Compound 414]	> 500 nM	††† (Efficacy (%) > 150)
COc1cccc(N2CCC(c3oc4cc([C@@H](CC(=O)O)C5CC5)ccc4c3C(OCC(C)C)c3cccc(C)c3)CC2)c1 (stereo partly drawn) [Compound 428]	100 to 500 nM	†† (150 ≥ Efficacy (%) > 100)
COc1cccc(N2CCC(c3oc4cc(C(CC(=O)O)C5CC5)ccc4c3-c3nnc(C45CC6CC(CC(C6)C4)C5)o3)CC2)c1 (stereo not drawn) [Compound 139]	100 to 500 nM	†† (150 ≥ Efficacy (%) > 100)
COc1cccc(N2CCC(c3oc4cc(C(CC(=O)O)C5CC5)ccc4c3C(=O)Nc3c(F)cccc3OC)CC2)c1 (stereo not drawn) [Compound 259]	> 500 nM	†† (150 ≥ Efficacy (%) > 100)
COc1ccc(F)c(N2CCC(c3oc4cc(C(CC(=O)O)C5CC5)ccc4c3C(=O)Nc3ccccc3C)CC2)c1 (stereo not drawn) [Compound 319]	100 to 500 nM	†† (150 ≥ Efficacy (%) > 100)
COc1cccc(N2CCC(c3oc4cc(C(CC(=O)O)C5CC5)ccc4c3-c3cnc(C)s3)CC2)c1 (stereo not drawn) [Compound 101]	100 to 500 nM	†† (150 ≥ Efficacy (%) > 100)
COc1cccc(N2CCC(c3oc4cc(C(CC(=O)O)C5CC5)ccc4c3C(=O)NC34CC5CC(CC(C)(C5)C3)C4)CC2)c1 (stereo not drawn) [Compound 353]	100 to 500 nM	††† (Efficacy (%) > 150)
COc1cccc(N2CCC(c3oc4cc([C@@H](CC(=O)O)C5CC5)ccc4c3/C=C/C(C)(C)C)CC2)c1 [Compound 361]	10 to 100 nM	†† (150 ≥ Efficacy (%) > 100)
Cc1ccc(Cl)c(NC(=O)c2c(C3CCN(c4ccc5c(c4)OCO5)CC3)oc3cc([C@@H](CC(=O)O)C4CC4)ccc23)c1 [Compound 332]	≤ 10 nM	†† (150 ≥ Efficacy (%) > 100)
Cc1ccc(N2CCC(c3oc4cc(C(CC(=O)O)C5CC5)ccc4c3-c3cccc(C(C)(C)C)c3)CC2)cc1 (stereo not drawn) [Compound 3]	100 to 500 nM	†† (150 ≥ Efficacy (%) > 100)
COc1cccc(N2CCC(c3oc4cc([C@@H](CC(=O)O)C5CC5)ccc4c3C(=O)Nc3cc(C4CC4)ccc3Cl)CC2)c1 [Compound 279]	> 500 nM	†† (150 ≥ Efficacy (%) > 100)
COc1cccc(N2CCC(c3oc4cc([C@@H](CC(=O)O)C5CC5)ccc4c3C(=O)Nc3ccccc3F)CC2)c1F [Compound 323]	≤ 10 nM	†† (150 ≥ Efficacy (%) > 100)
CC(c1ccccc1OC(F)(F)F)N1CCC(c2oc3cc(C(CC(=O)O)C4CC4)ccc3c2C(=O)Nc2ccccc2F)CC1 (stereo not drawn) [Compound 327]	100 to 500 nM	†† (150 ≥ Efficacy (%) > 100)
Cc1cccc(-c2c(C3CCN(c4ccc5c(c4)OCO5)CC3)oc3cc(C(CC(=O)O)C4CC4)ccc23)c1 (stereo not drawn) [Compound 210]	100 to 500 nM	†† (150 ≥ Efficacy (%) > 100)
COc1ccc(F)c(N2CCC(c3oc4cc(C(CC(=O)O)C5CC5)ccc4c3-c3cnn(-c4ccccc4)c3)CC2)c1 (stereo not drawn) [Compound 99]	100 to 500 nM	†† (150 ≥ Efficacy (%) > 100)
COc1cccc(N2CCC(c3oc4cc([C@@H](CC(=O)O)C5CC5)ccc4c3-c3ccnc(C)c3)CC2)c1 [Compound 145]	10 to 100 nM	†† (150 ≥ Efficacy (%) > 100)
CC(C)(C)c1ccc(-c2c(C3CCN(c4ccc5c(c4)OCCO5)CC3)oc3cc(C(CC(=O)O)C4CC4)ccc23)cc1 (stereo not drawn) [Compound 215]	100 to 500 nM	†† (150 ≥ Efficacy (%) > 100)
COc1cccc(N2CCC(c3oc4cc([C@@H](CC(=O)O)C5CC5)ccc4c3-c3nc(C(C)C)cs3)CC2)c1 [Compound 109]	100 to 500 nM	†† (150 ≥ Efficacy (%) > 100)
COc1ccc(F)c(N2CCC(c3oc4cc(C(CC(=O)O)C5CC5)ccc4c3CC3=CCCC3)CC2)c1 (stereo not drawn) [Compound 383]	100 to 500 nM	††† (Efficacy (%) > 150)

SMILES	EC50	Efficacy (%)
COc1ccc(F)c(N2CCC(c3cc4ccc(C(CC(=O)O)C5CC5)cc4o3)CC2)c1 (stereo not drawn) [Comparative Example 1, reference compound]	> 1000 nM	NA (NA indicates no activity)
COc1cccc(N2CCC(c3oc4cc([C@@H](CC(=O)O)C5CC5)ccc4c3CN(C(=O)C(C)(C)C)c3cccc(Cl)c3)CC2)c1 [Compound 448]	100 to 500 nM	†† (150 ≥ Efficacy (%) > 100)
Cc1ccccc1N1CCC(c2oc3cc(C(CC(=O)O)C4CC4)ccc3c2-c2cccc(C(C)(C)C)c2)CC1 (stereo not drawn) [Compound 5]	100 to 500 nM	††† (Efficacy (%) > 150)
COc1cccc(N2CCC(c3oc4cc([C@@H](CC(=O)O)C5CC5)ccc4c3-c3nc(C(C)(C)C)co3)CC2)c1 [Compound 117]	10 to 100 nM	†† (150 ≥ Efficacy (%) > 100)
COc1cccc(N2CCC(c3oc4cc([C@@H](CC(=O)O)C5CC5)ccc4c3CNC(=O)C(C)(C)C)CC2)c1 [Compound 436]	> 500 nM	†† (150 ≥ Efficacy (%) > 100)
COc1cccc(N2CCC(c3oc4cc(C(CC(=O)O)C5CC5)ccc4c3C(=O)Nc3c(C)cccc3F)CC2)c1 (stereo not drawn) [Compound 252]	100 to 500 nM	†† (150 ≥ Efficacy (%) > 100)
COc1cccc(N2CCC(c3oc4cc(C(CC(=O)O)C5CC5)ccc4c3-c3ncn(C)n3)CC2)c1 (stereo not drawn) [Compound 121]	> 500 nM	†† (150 ≥ Efficacy (%) > 100)
COc1cccc(-c2c(C3CCN(c4cccc(OC)c4)CC3)oc3cc(C(CC(=O)O)C4CC4)ccc23)c1 (stereo not drawn) [Compound 29]	100 to 500 nM	†† (150 ≥ Efficacy (%) > 100)
COc1cccc(N2CCC(c3oc4cc(C(CC(=O)O)C5CC5)ccc4c3C(=O)N3CCCC3)CC2)c1 (stereo not drawn) [Compound 358]	100 to 500 nM	† (100 ≥ Efficacy (%) > 50)
COc1cccc(N2CCC(c3oc4cc(C(CC(=O)O)C5CC5)ccc4c3C(=O)NC34CC(C3)C4)CC2)c1 (stereo not drawn) [Compound 345]	100 to 500 nM	†† (150 ≥ Efficacy (%) > 100)
COc1ccc(F)c(N2CCC(c3oc4cc([C@@H](CC(=O)O)C5CC5)ccc4c3C(=O)Nc3cc(Cl)ccc3F)CC2)c1 [Compound 338]	10 to 100 nM	†† (150 ≥ Efficacy (%) > 100)
COc1cccc(N2CCC(c3oc4cc(C(CC(=O)O)C5CC5)ccc4c3C(=O)Nc3nccs3)CC2)c1 (stereo not drawn) [Compound 290]	100 to 500 nM	†† (150 ≥ Efficacy (%) > 100)
CNC(=O)C(C)(C)n1cc(-c2c(C3CCN(c4cccc(OC)c4)CC3)oc3cc(C(CC(=O)O)C4CC4)ccc23)cn1 (stereo not drawn) [Compound 52]	100 to 500 nM	† (100 ≥ Efficacy (%) > 50)
CCOC(C)c1c(C2CCN(c3cccc(OC)c3)CC2)oc2cc([C@@H](CC(=O)O)C3CC3)ccc12 (stereo partly drawn) [Compound 407]	100 to 500 nM	††† (Efficacy (%) > 150)
COc1cccc(N2CCC(c3oc4cc([C@@H](CC(=O)O)C5CC5)ccc4c3-c3ccc4cccc(F)c4n3)CC2)c1 [Compound 155]	10 to 100 nM	††† (Efficacy (%) > 150)
COc1cccc(N2CCC(c3oc4cc([C@@H](CC(=O)O)C5CC5)ccc4c3C(C)OCC3CCC3)CC2)c1 (stereo partly drawn) [Compound 418]	10 to 100 nM	††† (Efficacy (%) > 150)
COc1ccc(F)c(N2CCC(c3oc4cc(C(CC(=O)O)C5CC5)ccc4c3-c3cccc(N4CCCC4(C)C)c3)CC2)c1 (stereo not drawn) [Compound 192]	100 to 500 nM	†† (150 ≥ Efficacy (%) > 100)
CC(C)(C)n1cc(-c2c(C3CCN(c4ccccc4)CC3)oc3cc(C(CC(=O)O)C4CC4)ccc23)cn1 (stereo not drawn) [Compound 39]	100 to 500 nM	††† (Efficacy (%) > 150)
CC(C)(C)c1cccc(-c2c(C3CCN(c4cccc(C(F)(F)F)c4)CC3)oc3cc(C(CC(=O)O)C4CC4)ccc23)c1 (stereo not drawn) [Compound 20]	100 to 500 nM	†† (150 ≥ Efficacy (%) > 100)

— patent EP4682145A1, “BENZOHETEROCYCLIC COMPOUND, AND PREPARATION METHOD THEREFOR AND USE THEREOF” (Cascade Pharmaceuticals, Inc., priority 2023, dated 2024)
